In patent publication US9738591B2, “Antimicrobial compounds” (priority 2009, dated 2017):

Key:
Experiment in all cases: Disk diffusion
[1] = system: Staphylococcus aureus NCTC 6571/ATCC 9144; conditions: for Zone of inhibition, S. aureus NCTC 6571: analogues in DMSO, protocol of Example 3; for zones of inhibition with S aureus NCTC6571: applied at 10 mg/ml
E. coli NCTC 10418 = conditions: for Zone of inhibition, E. coli NCTC 10418: analogues in DMSO, protocol of Example 3
[2] = system: Pseudomonas aeruginosa NCTC 10662; conditions: P. aeruginosa NCTC 10662
[3] = system: Salmonella enterica subsp. enterica serovar Typhimurium ATCC 13311; conditions: S. typhimurium ATCC 13311
[4] = system: Staphylococcus aureus (methicillin resistant) NCTC 10442; conditions: S. aureus NCTC 10442
[5] = system: Streptococcus pneumoniae ATCC 49619; conditions: S. pneumoniae ATCC 49619
[6] = system: Staphylococcus epidermidis ATCC 12228; conditions: S. epidermidis ATCC 1228
[7] = system: Bacillus subtilis ATCC 6633; conditions: B. subtilis ATCC 6633
[8] = system: Listeria monocytogenes NCTC 7973; conditions: L. monocytogenes NCTC 7973
C. albicans ATCC 90028 = system: C. albicans ATCC 90028
[9] = system: Enterococcus faecalis NCTC 775; conditions: E. faecalis NCTC 775
[10] = system: Shigella flexneri NCTC 8192; format: cell-based; conditions: S. flexneri NCTC 8192
Description: Plates were incubated at 35° C.

[11] = system: Micrococcus luteus ATCC 10240; conditions: M. luteus ATCC 10240
[12] = system: Streptococcus pyogenes NCTC 8191; conditions: S. pyogenes NCTC 8191
[13] = system: V. cholerae non-01 clinical
[14] = system: A. calcoaceticus ATCC 15308
[15] = system: Escherichia coli NCTC 10538; conditions: E. coli NCTC 10538
[16] = system: Staphylococcus xylosus ATCC 29971; conditions: S. xylosus ATCC 29971
[17] = system: Yersinia enterocolitica clinical 26609; conditions: Y. enterocolitica clinical 26609
K. pneumoniae NCTC 10896 = system: K. pneumoniae NCTC 10896
[18] = system: Citrobacter freundii NCTC 9750/ATCC 8090; conditions: C. freundii NCTC 9750
[19] = system: Aeromonas hydrophila NCTC 8049/ATCC 7966; conditions: A. hydrophila NCTC 8049
[20] = system: Proteus mirabilis NCTC 10975; conditions: P. mirabilis NCTC 10975
[21] = system: Bacillus cereus ATCC 13061; conditions: B. cereus ATCC 13061
[22] = system: Moraxella catarrhalis NCTC 3625; conditions: M. catarrhalis NCTC 3625
[23] = system: Stenotrophomonas maltophilia ATCC 13637; conditions: S. maltophilia ATCC 13637

## O=C(O)/C=C/c1ccc(-c2cc(-c3ccc(/C=C/C(=O)O)cc3)cc(-c3ccc(/C=C/C(=O)O)cc3)c2)cc1 [TCB001]
[1]
  Zone of inhibition, S. aureus NCTC 6571: 11 mm

## COc1cc(/C=C/c2cc(/C=C/c3cc(OC)c(OC)c(OC)c3)cc(/C=C/c3cc(OC)c(OC)c(OC)c3)c2)cc(OC)c1OC [TSB049]
[1]
  Zone of inhibition, S. aureus NCTC 6571: 0 mm
E. coli NCTC 10418
  Zone of inhibition, E. coli NCTC 10418: 0 mm

## C(=C\c1cc(/C=C/c2ccncc2)cc(/C=C/c2ccncc2)c1)/c1ccncc1 [TSB053]
[1]
  Zone of inhibition, S. aureus NCTC 6571: 0 mm

## CCCCOC(=O)/C=C/c1ccc(-c2nc(-c3ccc(/C=C/C(=O)OCCCC)cc3)nc(-c3ccc(/C=C/C(=O)OCCCC)cc3)n2)cc1 [TCT003]
[1]
  Zone of inhibition, S. aureus NCTC 6571: 0 mm
E. coli NCTC 10418
  Zone of inhibition, E. coli NCTC 10418: 0 mm

## O=C(O)c1ccc(CCc2cccc(CCc3ccc(C(=O)O)cc3)c2)cc1 [DSB004]
[1]
  zones of inhibition with S aureus NCTC6571: no zones of inhibition

## O=C(O)c1ccc(CCc2ccc(CCc3ccc(C(=O)O)cc3)cc2)cc1 [DSD002]
[1]
  zones of inhibition with S aureus NCTC6571: no zones of inhibition

## O=C(O)c1ccc(/C=C/c2ccc(/C=C/c3ccc(C(=O)O)cc3)cc2)cc1 [DSB001]
[1]
  zones of inhibition with S aureus NCTC6571: no zones of inhibition

## O=C(O)c1ccc(CCc2ccc(CCc3ccc(C(=O)O)cc3)c(CCc3ccc(C(=O)O)cc3)c2)cc1 [TSB068]
[2]
  Zone of Inhibition: 0 mm
[3]
  Zone of Inhibition: 0 mm
[1]; S. aureus NCTC 6571
  Zone of Inhibition: 8 mm
[4]
  Zone of Inhibition: 0 mm
E. coli NCTC 10418; E. coli NCTC 10418
  Zone of Inhibition: 0 mm
[5]
  Zone of Inhibition: 23 mm
[6]
  Zone of Inhibition: 0 mm
[7]
  Zone of Inhibition: 0 mm
[8]
  Zone of Inhibition: 15 mm
C. albicans ATCC 90028
  Zone of Inhibition: 0 mm
[9]
  Zone of Inhibition: 0 mm
[10]
  Zone of Inhibition: 0 mm
[11]
  Zone of Inhibition: 8 mm
[12]
  Zone of Inhibition: 20 mm
[13]
  Zone of Inhibition: 0 mm
[14]
  Zone of Inhibition: 0 mm
[15]
  Zone of Inhibition: 0 mm
[16]
  Zone of Inhibition: 0 mm
[17]
  Zone of Inhibition: 0 mm
K. pneumoniae NCTC 10896
  Zone of Inhibition: 0 mm
[18]
  Zone of Inhibition: 0 mm
[19]
  Zone of Inhibition: 7 mm
[20]
  Zone of Inhibition: 0 mm
[21]
  Zone of Inhibition: 0 mm
[22]
  Zone of Inhibition: 32 mm
[23]
  Zone of Inhibition: 0 mm

## CN(C)c1ccc(/C=C/c2cc(/C=C/c3ccc(N(C)C)cc3)cc(/C=C/c3ccc(N(C)C)cc3)c2)cc1 [TSB009]
[1]
  Zone of inhibition, S. aureus NCTC 6571: 0 mm

## CC(=O)c1ccc(/C=C/c2cc(/C=C/c3ccc(C(C)=O)cc3)cc(/C=C/c3ccc(C(C)=O)cc3)c2)cc1 [TSB025]
[1]
  Zone of inhibition, S. aureus NCTC 6571: 0 mm
E. coli NCTC 10418
  Zone of inhibition, E. coli NCTC 10418: 0 mm

## N#Cc1ccc(/C=C/c2cc(/C=C/c3ccc(C#N)cc3)cc(/C=C/c3ccc(C#N)cc3)c2)cc1 [TSB063]
[1]
  Zone of inhibition, S. aureus NCTC 6571: 0 mm
E. coli NCTC 10418
  Zone of inhibition, E. coli NCTC 10418: 0 mm
